According to patent US12398107B2, “Fungicidal nitroanilino substituted pyrazoles” (FMC Corporation, priority 2018, dated 2025):

Tests used:
Format in all cases: in vivo
[1] = tested on: Botrytis cinerea; assay: Test E: tomato Botrytis, preventive spray on tomato seedlings; conditions: 100 = 100% disease control, 0 = no control; for pest or weed control at 50 ppm / Test E disease control rating (tomato Botrytis): 50 ppm
Procedure, shortened: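 Tomato seedlings sprayed to run-off with compound (ppm) in acetone/water with 250 ppm PEG400, then inoculated next day with B. cinerea spores. Held 48 h at 20 °C in saturated atmosphere, then 3 days at 24 °C. Visual rating 0–100% disease control relative to untreated controls.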

[2] = tested on: Phakopsora pachyrhizi; assay: Test D: Asian soybean rust, preventive spray on soybean seedlings; conditions: 100 = 100% disease control, 0 = no control; for pest or weed control at 50 ppm / Test D disease control rating (Asian soybean rust): 50 ppm
Procedure, shortened: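 Soybean seedlings sprayed to run-off with compound suspension (ppm, in 50/50 acetone/water with 250 ppm PEG400), inoculated next day with P. pachyrhizi spores, held 24 h saturated at 22°C then 8 days at 22°C. Visual rating 0-100% disease control relative to controls.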

[3] = tested on: Blumeria graminis f. sp. tritici; assay: Test C: wheat powdery mildew, preventive spray on wheat seedlings; conditions: rated after 8 days, 100 = 100% disease control, 0 = no control; for pest or weed control at 50 ppm / Test C disease control rating (wheat powdery mildew): 50 ppm
Procedure, shortened: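 Compound dissolved in acetone (3% of final volume), then suspended in 50/50 acetone/water with 250 ppm PEG400 and sprayed to run-off on wheat seedlings. Inoculated next day with B. graminis f. sp. tritici spore dust, kept 8 days at 20° C; visual rating, 100 = full control, 0 = none, relative to controls.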

[4] = tested on: Alternaria solani; assay: Test F: tomato early blight, preventive spray on tomato seedlings; conditions: 100 = 100% disease control, 0 = no control; for pest or weed control at 50 ppm / Test F disease control rating (tomato early blight): 50 ppm
Procedure, shortened: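 Compounds in acetone/water (50/50) with 250 ppm PEG400, dosed in ppm, sprayed to run-off on tomato seedlings; next day inoculated with A. solani spores. Held 48 h saturated at 27° C, then 3 days at 20° C; visual rating 0–100% disease control relative to controls.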

[5] = tested on: Septoria tritici; assay: Test A: wheat leaf blotch, preventive spray on wheat seedlings; conditions: 100 = 100% disease control, 0 = no control relative to controls; for pest or weed control at 50 ppm / Test A disease control rating (wheat leaf blotch): 50 ppm
Procedure, shortened: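 Compounds were suspended in acetone/water (50/50) with 250 ppm PEG400 and sprayed to run-off on wheat seedlings. The next day the seedlings were inoculated with Septoria tritici spores, held 48 h at 24 °C in saturated humidity, then 17 days at 20 °C. Disease control was rated 0–100 relative to controls.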

[6] = tested on: Puccinia recondita f. sp. tritici; assay: Test B: wheat leaf rust, preventive spray on wheat seedlings; conditions: 100 = 100% disease control, 0 = no control relative to controls; for pest or weed control at 50 ppm / Test B disease control rating (wheat leaf rust): 50 ppm
Procedure, shortened: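 Compounds in acetone/water (50/50) with 250 ppm PEG400, sprayed to run-off on wheat seedlings at stated ppm; inoculated next day with P. recondita spores. Held 24 h saturated at 20° C., then 7 days in growth chamber at 20° C.; rating 0–100 = % disease control vs controls.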

[7] = Botrytis cinerea, read-out: Test E disease control rating (tomato Botrytis)
[8] = Phakopsora pachyrhizi, read-out: Test D disease control rating (Asian soybean rust)
[9] = Blumeria graminis, 192 h, read-out: Test C disease control rating (wheat powdery mildew)
[10] = Alternaria solani, read-out: Test F disease control rating (tomato early blight)
[11] = Zymoseptoria tritici, read-out: Test A disease control rating (wheat leaf blotch)
[12] = read-out: Test B disease control rating (wheat leaf rust)

SMILES | pest or weed control at 10 ppm ([1]; Botrytis cinerea, 10 ppm, read-out: Test E disease control rating (tomato Botrytis)) | pest or weed control at 50 ppm [1, 7] | pest or weed control at 10 ppm ([2]; Phakopsora pachyrhizi, 10 ppm, read-out: Test D disease control rating (Asian soybean rust)) | pest or weed control at 50 ppm [2, 8] | pest or weed control at 10 ppm ([3]; Blumeria graminis, 192 h, 10 ppm, read-out: Test C disease control rating (wheat powdery mildew)) | pest or weed control at 50 ppm [3, 9] | pest or weed control at 10 ppm ([4]; Alternaria solani, 10 ppm, read-out: Test F disease control rating (tomato early blight)) | pest or weed control at 50 ppm [4, 10] | pest or weed control at 10 ppm ([5]; Zymoseptoria tritici, 10 ppm, read-out: Test A disease control rating (wheat leaf blotch)) | pest or weed control at 50 ppm [5, 11] | pest or weed control at 10 ppm ([6]; 10 ppm, read-out: Test B disease control rating (wheat leaf rust)) | pest or weed control at 50 ppm [6, 12] | Test E disease control rating (tomato Botrytis) [1] | Test D disease control rating (Asian soybean rust) [2] | Test C disease control rating (wheat powdery mildew) [3] | Test F disease control rating (tomato early blight) [4] | Test A disease control rating (wheat leaf blotch) [5] | Test B disease control rating (wheat leaf rust) [6]
Cc1nn(C)c(Nc2c(F)cccc2[N+](=O)[O-])c1-c1ccc(F)cc1F [Compound 118, 4-(2,4-difluorophenyl)-N-(2-fluoro-6-nitrophenyl)-1,3-dimethyl-1H-pyrazol-5-amine] | 99% | 100% | 0% | 0% | 27% | 98% | 60% | 99% | 100% | 100% | 80% | 100% | – | – | – | – | – | –
COc1ccc(Nc2c(-c3ccc(Cl)cc3Cl)c(C)nn2C)c([N+](=O)[O-])c1 [Compound 142] | – | – | – | – | – | – | – | – | – | – | – | – | 99% | 25% | 39% | 80% | 100% | 91%
CCc1nn(C)c(Nc2c(F)cccc2[N+](=O)[O-])c1-c1c(F)cc(Cl)cc1F [Compound 170] | – | – | – | – | – | – | – | – | – | – | – | – | 100% | 0% | 99% | 99% | 100% | 99%
COc1ccc(Nc2c(-c3c(F)cc(F)cc3Br)c(C)nn2C)c([N+](=O)[O-])c1 [Compound 164] | – | – | – | – | – | – | – | – | – | – | – | – | 100% | 0% | 98% | 99% | 100% | 100%
Cc1nn(C)c(Nc2cccc(Cl)c2[N+](=O)[O-])c1-c1ccc(F)cc1Cl [Compound 34] | – | – | – | – | – | – | – | – | – | – | – | – | 71% | 0% | 13% | 0% | 100% | 54%
Cc1nn(C)c(Nc2c(F)cccc2[N+](=O)[O-])c1-c1c(F)cccc1Cl [Compound 25] | – | – | – | – | – | – | – | – | – | – | – | – | 100% | 98% | 99% | 98% | 100% | 100%
Cc1nn(C)c(Nc2c([N+](=O)[O-])ccc(F)c2F)c1-c1ccc(F)cc1Cl [Compound 7] | – | – | – | – | – | – | – | – | – | – | – | – | 99% | 96% | 94% | 89% | 100% | 99%
Cc1nn(C)c(Nc2ccc(OC(C)C)cc2[N+](=O)[O-])c1-c1ccc(F)cc1Cl [Compound 104] | – | – | – | – | – | – | – | – | – | – | – | – | 0% | 0% | 72% | 0% | 60% | 0%
Cc1nn(C)c(Nc2ccccc2[N+](=O)[O-])c1-c1ccc(C#N)cc1F [Compound 134] | – | – | – | – | – | – | – | – | – | – | – | – | 70% | 0% | 71% | 0% | 100% | 23%
COc1cc(F)c(-c2c(C)nn(C)c2Nc2ccc(F)cc2[N+](=O)[O-])c(F)c1 [Compound 83] | – | – | – | – | – | – | – | – | – | – | – | – | 98% | 0% | 99% | 99% | 99% | 91%
Cc1nn(C)c(Nc2ccc(F)cc2[N+](=O)[O-])c1-c1c(F)cccc1Cl [Compound 44] | – | – | – | – | – | – | – | – | – | – | – | – | 95% | 0% | 98% | 46% | 100% | 99%
Cc1cccc([N+](=O)[O-])c1Nc1c(-c2ccc(F)cc2Br)c(C)nn1C [Compound 42] | – | – | – | – | – | – | – | – | – | – | – | – | 91% | 0% | 96% | 0% | 100% | 100%
Cc1nn(C)c(Nc2ccc(OC(F)F)cc2[N+](=O)[O-])c1-c1ccc(F)cc1Cl [Compound 28] | – | – | – | – | – | – | – | – | – | – | – | – | 99% | 0% | 69% | 0% | 91% | 68%
Cc1cc(Cl)c(Nc2c(-c3c(F)cccc3Cl)c(C)nn2C)c([N+](=O)[O-])c1 [Compound 24] | – | – | – | – | – | – | – | – | – | – | – | – | 97% | 0% | 0% | 0% | 100% | 89%
Cc1nn(C)c(Nc2c(F)cc(Cl)cc2[N+](=O)[O-])c1-c1ccc(F)cc1Cl [Compound 121, N-(4-chloro-2-fluoro-6-nitrophenyl)-4-(2-chloro-4-fluorophenyl)-1,3-dimethyl-1H-pyrazol-5-amine] | – | 100% | – | 99% | – | 100% | – | 100% | – | 100% | – | 100% | – | – | – | – | – | –
Cc1cc(F)c(Nc2c(-c3ccc(F)cc3F)c(C)nn2C)c([N+](=O)[O-])c1 [Compound 178] | – | – | – | – | – | – | – | – | – | – | – | – | 100% | 97% | 99% | 100% | 100% | 100%
CCc1nn(C)c(Nc2c(F)cc(Br)cc2[N+](=O)[O-])c1-c1ccc(F)cc1F [Compound 171] | – | – | – | – | – | – | – | – | – | – | – | – | 97% | 0% | 99% | 88% | 100% | 91%
Cc1nn(C)c(Nc2ccccc2[N+](=O)[O-])c1-c1ccc(F)cc1Cl [Compound 126] | – | – | – | – | – | – | – | – | – | – | – | – | 100% | 0% | 96% | 68% | 98% | 85%
